Laboratory results: US20110209253A1, “Method for Improving Plant Health” (BASF SE, priority 2008, published 2011)
Like-named read-outs stand apart in the source and are kept apart here.

Assays:
[1] = test system: Wheat plants (Triticum aestivum cv. Cubus); test: Growth-promoting effect on wheat plants after root treatment (hydroponic culture); assay type: in vivo; design: Shoot-FW ± SE / Root-FW ± SE: unit not given here; conditions: for Root-FW ± SE / Shoot-FW ± SE / activity at 1 µM / activity at 3 µM: seven days after treatment; for activity at 1 µM / activity at 3 µM: Triticum aestivum, 168 h
Description: Wheat plants (Triticum aestivum cv. Cubus) at the 2nd leaf stage were cultivated in 320 mL glass vessels with 300 mL half-strength Linsmaier-Skoog medium (Physiologia Plantarum 18: 100-127, 1964). The solution was aerated throughout experiment. The vessels were incubated randomized in a climate chamber under 16:8 h light:dark cycles (photon flux density 400 μmol m-2 s-1, 400-750 nm, Osram powerstar HQI-R 250W/NDL and Osram krypton 100W lamps) at 22° C. (light):20° C. (dark) and 75% relative humidity (3 plants per vessel, 9 replicate vessels). After 2 days of adaptation, plants were treated with Dimethyl-carbamic acid 2-methylcarbamoyl-2-[(1-methyl-3-trifluoromethyl-1H-pyrazole-4-carbonyl)-amino]-1-(tetrahydro-pyran-4-yl)-ethyl ester (compound 1) which was added to the medium in dimethyl sulfoxide (DMSO) solution (0.1% final concentration of DMSO). Controls received corresponding quantity of DMSO alone, with no adverse effect on the growth of the plants. Seven days after treatment, fresh weights (FW) of shoot and root, as the growth parameters, were measured and mean values±standard error (SE) of 27 plant parts was calculated.

[2] = test system: Wheat plants (Triticum aestivum cv. Monopol); test: Growth-promoting effect on wheat plants after foliar treatment (Example 2); assay type: in vivo; conditions: for Number of tillers: per plant; for activity at 7.81 g/ha / activity at 15.63 g/ha / activity at 31.25 g/ha: Triticum aestivum, 504 h
Description: Wheat plants (Triticum aestivum cv. Monopol) were grown in soil with ten plants per pot (13 cm diameter) under greenhouse conditions. Plants at the 2nd leaf stage were sprayed with an aqueous solution of formulated Dimethyl-carbamic acid 2-methylcarbamoyl-2-[(1-methyl-3-trifluoromethyl-1H-pyrazole-4-carbonyl)-amino]-1-(tetrahydro-pyran-4-yl)-ethyl ester (compound 1). The compound was applied at three different dose rates, i.e. 31.25/15.63/7.81 g ai/ha and the spray volume was 750 l/ha. Ten replicate pots with ten plants each were used per treatment. After three weeks (21 days) plants were harvested and growth parameters were determined. The recorded parameters were fresh weight, dry weigh, leaf area (all per pot) and number of tillers (per plant). Mean values of results, standard deviation (SD) and percentage to control were calculated.

[3] = 7.81 g/ha foliar spray, 21 days, per pot
[4] = 15.63 g/ha foliar spray, 21 days, per pot
[5] = 31.25 g/ha foliar spray, 21 days, per pot

With `CNC(=O)C(NC(=O)c1cn(C)nc1C(F)(F)F)C(OC(=O)N(C)C)C1CCOCC1` (stereo not shown) [Compound 1, Dimethyl-carbamic acid 2-methylcarbamoyl-2-[(1-methyl-3-trifluoromethyl-1H-pyrazole-4-carbonyl)-amino]-1-(tetrahydro-pyran-4-yl)-ethyl ester] as the compound, how does the “Root-FW ± SE” value ([1]; Experiment 1, 1 μM in medium) read?
Its value is 0.403 ± 0.015.

And the “Shoot-FW ± SE” value ([1]; Experiment 1, 1 μM in medium)?
The value was 0.747 ± 0.017.

What about the “Root-FW ± SE” value ([1]; Experiment 1, 3 μM in medium) of the same compound?
Its value is 0.382 ± 0.013.

And the “Shoot-FW ± SE” value ([1]; Experiment 1, 3 μM in medium)?
The value was 0.733 ± 0.019.

And the “Root-FW ± SE” value ([1]; Experiment 2, 1 μM in medium)?
The value was 0.342 ± 0.010.

What about the “Shoot-FW ± SE” value ([1]; Experiment 2, 1 μM in medium) of the same compound?
Its value is 0.736 ± 0.024.

What about the “Root-FW ± SE” value ([1]; Experiment 2, 3 μM in medium) of the same compound?
The value was 0.335 ± 0.012.

And the “Shoot-FW ± SE” value ([1]; Experiment 2, 3 μM in medium)?
The value was 0.738 ± 0.021.

And the activity at 1 µM ([1]; Experiment 1, 1 μM in medium, read-out: Root-FW % of control)?
Its activity at 1 µM is 113%.

What about the activity at 1 µM ([1]; Experiment 1, 1 μM in medium, read-out: Shoot-FW % of control) of the same compound?
The activity at 1 µM was 115%.

And the activity at 3 µM ([1]; Experiment 1, 3 μM in medium, read-out: Root-FW % of control)?
The activity at 3 µM was 107%.

What about the activity at 3 µM ([1]; Experiment 1, 3 μM in medium, read-out: Shoot-FW % of control) of the same compound?
The activity at 3 µM was 112%.

What about the activity at 1 µM ([1]; Experiment 2, 1 μM in medium, read-out: Root-FW % of control) of the same compound?
The activity at 1 µM was 105%.

And the activity at 1 µM ([1]; Experiment 2, 1 μM in medium, read-out: Shoot-FW % of control)?
The activity at 1 µM was 115%.

And the activity at 3 µM ([1]; Experiment 2, 3 μM in medium, read-out: Root-FW % of control)?
Its activity at 3 µM is 103%.

What about the activity at 3 µM ([1]; Experiment 2, 3 μM in medium, read-out: Shoot-FW % of control) of the same compound?
Its activity at 3 µM is 115%.

What about the “shoot tillering and adventitious root growth” value ([1]; root treatment) of the same compound?
Its value is “promoted”.

And the “stimulation of shoot and root growth relative to controls” value ([1]; root treatment, 1 and 3 μM, two experiments)?
Its value is “up to 15%”.

What about the Number of tillers ([2]; 7.81 g/ha foliar spray, 21 days) of the same compound?
Its Number of tillers is 2.9.

What about the Leaf area [2, 3] of the same compound?
The Leaf area was 1121.1 cm^2.

And the “Shoot DW” value [2, 3]?
The value was 4.4 g.

And the “Shoot FW” value [2, 3]?
Its value is 43.9 g.

And the Number of tillers ([2]; 15.63 g/ha foliar spray, 21 days)?
The Number of tillers was 2.8.

What about the Leaf area [2, 4] of the same compound?
Its Leaf area is 1046.3 cm^2.

And the “Shoot DW” value [2, 4]?
Its value is 4.0 g.

What about the “Shoot FW” value [2, 4] of the same compound?
The value was 40.5 g.

And the Number of tillers ([2]; 31.25 g/ha foliar spray, 21 days)?
The Number of tillers was 2.8.

And the Leaf area [2, 5]?
The Leaf area was 1060.3 cm^2.

And the “Shoot DW” value [2, 5]?
The value was 4.2 g.

What about the “Shoot FW” value [2, 5] of the same compound?
Its value is 42.8 g.

What about the activity at 7.81 g/ha ([2]; 7.81 g/ha foliar spray, 21 days, read-out: Leaf area % of control) of the same compound?
The activity at 7.81 g/ha was 126%.

And the activity at 7.81 g/ha ([2]; 7.81 g/ha foliar spray, 21 days, read-out: Number of tillers % of control)?
Its activity at 7.81 g/ha is 118%.

And the activity at 7.81 g/ha ([2]; 7.81 g/ha foliar spray, 21 days, read-out: Shoot DW % of control)?
The activity at 7.81 g/ha was 127%.

And the activity at 7.81 g/ha ([2]; 7.81 g/ha foliar spray, 21 days, read-out: Shoot FW % of control)?
Its activity at 7.81 g/ha is 126%.

What about the activity at 15.63 g/ha ([2]; 15.63 g/ha foliar spray, 21 days, read-out: Leaf area % of control) of the same compound?
The activity at 15.63 g/ha was 118%.

What about the activity at 15.63 g/ha ([2]; 15.63 g/ha foliar spray, 21 days, read-out: Number of tillers % of control) of the same compound?
The activity at 15.63 g/ha was 114%.

What about the activity at 15.63 g/ha ([2]; 15.63 g/ha foliar spray, 21 days, read-out: Shoot DW % of control) of the same compound?
Its activity at 15.63 g/ha is 116%.

And the activity at 15.63 g/ha ([2]; 15.63 g/ha foliar spray, 21 days, read-out: Shoot FW % of control)?
Its activity at 15.63 g/ha is 116%.

What about the activity at 31.25 g/ha ([2]; 31.25 g/ha foliar spray, 21 days, read-out: Leaf area % of control) of the same compound?
Its activity at 31.25 g/ha is 120%.

What about the activity at 31.25 g/ha ([2]; 31.25 g/ha foliar spray, 21 days, read-out: Number of tillers % of control) of the same compound?
Its activity at 31.25 g/ha is 114%.

And the activity at 31.25 g/ha ([2]; 31.25 g/ha foliar spray, 21 days, read-out: Shoot DW % of control)?
The activity at 31.25 g/ha was 122%.

What about the activity at 31.25 g/ha ([2]; 31.25 g/ha foliar spray, 21 days, read-out: Shoot FW % of control) of the same compound?
Its activity at 31.25 g/ha is 123%.

What about the “growth promoting (yield increasing) effect, dose response” value ([2]; by lowering the dose rate) of the same compound?
The value was “more pronounced”.

And the shoot tillering ([2]; foliar treatment)?
The shoot tillering was “increased”.

What about the “increase in fresh and dry weight related to control” value ([2]; foliar treatment, 7.81-31.25 g/ha) of the same compound?
Its value is “up to 26%”.

What about the Leaf area ([2]; foliar treatment, lowest dose rate gave the highest effect) of the same compound?
The Leaf area was “increased”.
